Laboratory results reported in patent US4079130A, “Antidepressant phenylazoimidazoles” (The Dow Chemical Company, priority 1977, dated 1978).
Like-named read-outs stand apart in the source and are kept apart here.

Tests used:
mice [1] = experiment: Protection from reserpine-induced depression (ptosis) in mice (antidepressant activity); type: in vivo; details: for ED50: Mus musculus; for antidepressant activity (in words): under the conditions of the demonstration
Protocol: Separate groups of mice and the same origin and past history (5 mice per group) were administered 2-((2-fluorophenyl)azo)-1H-imidazole (Example 3) in an aqueous carrier. Different groups were administered the compound by intraperitoneal injection at various dosage rates. Thirty minutes after the administration of the test compound, the mice were administered reserpine at a dosage rate of 2.5 milligrams per kilogram by intraperitoneal injection. Separate groups of similar mice were similarly administered 2.5 milligrams of reserpine per kilogram 30 minutes after administration of various dosages of the known antidepressant. The mice were then observed for 45 minutes for symptoms of reserpine-induced depression.
Protection from reserpine-induced depression is indicated by the absence of the characteristic ptosis.
The results were employed to calculate the dose effective to protect 50 percent of the mice (ED50) by classical, statistical procedures.
The procedure of Example 15 was repeated using oral administration of 2-((2-fluorophenyl)azo)-1H-imidazole (Example 3) instead of intraperitoneal injection.
Using the general procedure outlined above, the ED50 's were calculated for some of the other imidazoles herein disclosed.

[2] = Acute toxicity, 50 percent lethal dose (LD50); details: mouse, in vivo
mice [3] = experiment: Blocking of isolation-induced aggression in mice (antianxiety activity); type: in vivo; details: for ED50: Mus musculus, ip, intraperitoneal, 30 min before pairing, doses 10.0, 21.5, 46.4 mg/kg
Protocol: Antianxiety agents tend to block isolation-induced aggression in mice. Aggression was established in untrained mice by isolating them in individual cages for a period of four weeks. At the end of that period, the mice were paired for three minutes on three test days within one week to establish the absence or presence of aggression. During pairing, one mouse was always in the home cage, and the other was the intruder. […] On test days, each dose of test drug was administered by intraperitoneal injection to five pairs of mice; five additional pairs received only the vehicle and served as controls. Each drug was tested at three doses 10.0 mg, 21.5 mg, and 46.4 mg per kilogram of body weight. Thirty minutes after injection, the intruder was placed in the home cage of his opponent, and aggression was recorded as absent or present. When aggression was present, the intruder was removed immediately so that dominance was not established. Using the same procedure as employed in Examples 15 and 16, ED50 's were established for each compound.

[4] = ip, intraperitoneal, 30 min before reserpine 2.5 mg/kg i.p., observed 45 min, read-out: Intraperitoneal ED50 (dose effective to protect 50 percent of the mice)
[5] = oral, before reserpine 2.5 mg/kg i.p., read-out: Oral ED50
[6] = acute, Table II, route not given, read-out: Acute Toxicity LD50

Structure (SMILES) | ED50 (mice [1]; [4]) | ED50 (mice [1]; [5]) | ED50 (mice [3]) | LD50 ([2]; read-out: Acute Toxicity LD50) | further results
Clc1ccccc1N=Nc1ncc[nH]1 [Example 1, 2-((2-chlorophenyl)azo)-1H-imidazole] | 20 mg/kg | 23 mg/kg | – | – | LD50 [2, 6]: > 562 mg/kg
Cl.Clc1ccccc1N=Nc1ncc[nH]1 [Example 2, 2-((2-chlorophenyl)azo)-1H-imidazole hydrochloride] | 17 mg/kg | 32 mg/kg | 13.3 mg/kg | – | LD50 [2, 6]: 316 mg/kg
Fc1ccccc1N=Nc1ncc[nH]1 [Example 3, 2-((2-fluorophenyl)azo)-1H-imidazole] | – | – | 23.7 mg/kg | – | ED50 (mice [1]; ip, read-out: Intraperitoneal ED50 (dose effective to protect 50 percent of the mice)): 11 mg/kg; ED50 (mice [1]; po, read-out: Oral ED50): 11 mg/kg; selectivity ratio ([2]; ip, intraperitoneal LD50 / intraperitoneal ED50 (reserpine test), read-out: therapeutic index LD50/ED50): 13.4; LD50 ([2]; ip, intraperitoneal, acute, read-out: intraperitoneal acute 50 percent lethal dose (LD50)): 147 mg/kg
c1ccc(N=Nc2ncc[nH]2)cc1 [Example 4] | 20 mg/kg | 24 mg/kg | 27.1 mg/kg | 316 mg/kg | –
Cc1ccccc1N=Nc1ncc[nH]1 [Example 5] | 42 mg/kg | 43 mg/kg | – | – | antianxiety activity (in words) (mice [3]; isolation-induced aggression in mice): very weak activity
Brc1ccccc1N=Nc1ncc[nH]1 [Example 6] | 23 mg/kg | 79 mg/kg | 28.7 mg/kg | > 562 mg/kg | –
Ic1ccccc1N=Nc1ncc[nH]1 [Example 7] | – | 75 mg/kg | 31.6 mg/kg | > 562 mg/kg | –
O=[N+]([O-])c1ccccc1N=Nc1ncc[nH]1 [Example 8, 2-((2-nitrophenyl)azo)-1H-imidazole] | – | – | 27.1 mg/kg | – | antidepressant activity (in words) (mice [1]): active as an antidepressant
N#Cc1ccccc1N=Nc1ncc[nH]1 [Example 9] | 20 mg/kg | 19 mg/kg | 12.6 mg/kg | 147 mg/kg | –
Cc1cccc(N=Nc2ncc[nH]2)c1 [Example 10, 2-((3-methylphenyl)azo)-1H-imidazole] | 27 mg/kg | – | 5.84 mg/kg | – | LD50 [2, 6]: 316 mg/kg
Clc1cccc(N=Nc2ncc[nH]2)c1 [Example 11] | 24 mg/kg | 32 mg/kg | 24.5 mg/kg | 178 mg/kg | –
Cc1ccc(N=Nc2ncc[nH]2)cc1 [Example 12] | – | – | 28.7 mg/kg | – | antidepressant activity (in words) (mice [1]): essentially inactive as antidepressant agents
Cc1ccc(N=Nc2ncc[nH]2)c(Cl)c1 [Example 13] | – | – | 25.5 mg/kg | – | antidepressant activity (in words) (mice [1]): essentially inactive as antidepressant agents
Clc1ccc(N=Nc2ncc[nH]2)cc1 [Example 14, 2-((4-chlorophenyl)azo)-1H-imidazole] | – | – | 4.3 mg/kg | – | antidepressant activity (in words) (mice [1]): essentially inactive as antidepressant agents
